How the values were obtained:
[1] = system: T47D (PIK3CA H1047R) cells, pSer473 AKT; assay: pS473 AKT assay in T47D cells; format: cell-based; settings: Homo sapiens, treated 2 h, read-out: T47D_IC50
Procedure: (§1) SKBR3 (PIK3CA WT), MCF7 (PIK3CA E545K), and T47D (PIK3CA H1047R) cells were cultured using 10-cm petri dishes with recommended medium. One day before the assay, cells were seeded in 96-well plates. After overnight incubation, cells were treated with different concentrations of PI3Kα inhibitors for 2 h. Cells were then fixed using 4% paraformaldehyde at room temperature for 20 min. Cells were aspirated with 4% paraformaldehyde, and washed using 1× regular phosphate buffered saline 3 times, 5 min each. Any residual phosphate buffered saline was aspirated and cells were blocked using 10% goat serum containing 1% bovine serum albumin and 0.3% Triton X-100 at room temperature for 1 h. Without any additional washing, primary antibodies (rabbit anti-pSer473 AKT) were diluted using blocking buffer and added at a final volume of 50 microliter per well. Assay plates with primary antibodies were maintained overnight at 4° C. Cells were washed using 1× regular phosphate buffered saline 3 times, 5 min each. After the final wash, cells were incubated with horseradish peroxidase-conjugated secondary antibodies (goat Anti-rabbit IgG) and diluted using the same blocking buffer at room temperature for 1 h. Cells were then washed thoroughly using 1× regular phosphate buffered saline 3 times, 5 min each, and any residual phosphate buffered saline was aspirated. Super-Signal ELISA Pico Chemiluminescent Substrate was then added at a final volume of 100 microliter per well. Plates were read on a i3x Multi-Mode Microplate Reader and IC50 values calculated using GraphPad Prism software.
(§2) Results of the assay described above are presented in Table A. “++++” indicates an IC50 less than 1000 nM; “+++” indicates an IC50 greater than or equal to 1000 nM but less than 5000 nM; “++” indicates an IC50 greater than or equal to 5000 nM but less than 10000 nM; and “+” indicates an IC50 greater than or equal to 10000 nM.

[2] = system: SKBR3 (PIK3CA WT) cells, pSer473 AKT; assay: pS473 AKT assay in SKBR3 cells; format: cell-based; settings: Homo sapiens, SK-BR-3, treated 2 h, read-out: SKBR3_IC50
Procedure: as §1, §2

IC50 [1]	IC50 [2]	SMILES
< 1 µM	< 1 µM	Cn1nc(N)c2c(Oc3cc(F)ccc3Cl)c(NC(=O)c3cc(F)cc(C(F)(F)F)c3)cc(CCC#N)c21 [Example 59, N-(3-Amino-4-(2-chloro-5-fluorophenoxy)-7-(2-cyanoethyl)-1-methyl-1H-indazol-5-yl)-3-fluoro-5-(trifluoromethyl)benzamide]
< 1 µM	1 to 5 µM	Cn1nc(N)c2c(Oc3cc(F)ccc3Cl)c(NC(=O)c3cc(F)cc(C(F)(F)F)c3)cc(N3CCn4ncnc4C3)c21 [Example 55, N-(3-Amino-4-(2-chloro-5-fluorophenoxy)-7-(5,6-dihydro-[1,2,4]triazolo[1,5-a]pyrazin-7(8H)-yl)-1-methyl-1H-indazol-5-yl)-3-fluoro-5-(trifluoromethyl)benzamide]
< 1 µM	< 1 µM	Nc1nn2c3c(cc(NC(=O)c4cc(F)cc(C(F)(F)F)c4)c(Oc4cc(F)ccc4Cl)c13)CCC2 [Example 22, N-(2-amino-3-(2-chloro-5-fluorophenoxy)-7,8-dihydro-6H-pyrazolo[4,5,1-ij]quinolin-4-yl)-3-fluoro-5-(trifluoromethyl)benzamide]
< 1 µM	< 1 µM	Nc1n[nH]c2c(CN3CCOCC3)cc(NC(=O)c3cc(F)cc(C(F)(F)F)c3)c(Oc3cc(F)ccc3Cl)c12 [Example 21, N-(3-Amino-4-(2-chloro-5-fluorophenoxy)-7-(morpholinomethyl)-1H-indazol-5-yl)-3-fluoro-5-(trifluoromethyl)benzamide]
< 1 µM	1 to 5 µM	Nc1n[nH]c2c(-c3ccccc3)cc(NC(=O)c3cc(F)cc(C(F)(F)F)c3)c(Oc3cc(F)ccc3Cl)c12 [Example 17, N-(3-Amino-4-(2-chloro-5-fluorophenoxy)-7-phenyl-1H-indazol-5-yl)-3-fluoro-5-(trifluoromethyl)benzamide]
< 1 µM	< 1 µM	Nc1nn2c3c(cc(NC(=O)c4cc(F)cc(C(F)(F)F)c4)c(Oc4cc(F)ccc4Cl)c13)CNC(=O)C2 [Example 36, N-(2-Amino-3-(2-chloro-5-fluorophenoxy)-8-oxo-6,7,8,9-tetrahydro-[1,4]diazepino[6,7,1-hi]indazol-4-yl)-3-fluoro-5-(trifluoromethyl)benzamide]
< 1 µM	≥ 10 µM	Nc1nn2c3c(cc(NC(=O)c4cc(F)cc(C(F)(F)F)c4)c(Oc4cc(F)ccc4Cl)c13)-c1ccccc1C2 [Example 70, N-(4-Amino-3-(2-chloro-5-fluorophenoxy)-7H-pyrazolo[4,5,1-de]phenanthridin-2-yl)-3-fluoro-5-(trifluoromethyl)benzamide]
< 1 µM	5 to 10 µM	Cn1nc(N)c2c(Oc3cc(F)ccc3Cl)c(NC(=O)c3cc(F)cc(C(F)(F)F)c3)cc(/C=C/c3ccccn3)c21 [Example 76, (E)-N-(3-Amino-4-(2-chloro-5-fluorophenoxy)-1-methyl-7-(2-(pyridin-2-yl)vinyl)-1H-indazol-5-yl)-3-fluoro-5-(trifluoromethyl)benzamide]
< 1 µM	< 1 µM	Cc1cc(NC(=O)c2cc(F)cc(C(F)(F)F)c2)c(Oc2cc(F)ccc2Cl)c2c(N)n[nH]c12 [Example 13, N-(3-Amino-4-(2-chloro-5-fluorophenoxy)-7-methyl-1H-indazol-5-yl)-3-fluoro-5-(trifluoromethyl)benzamide]
< 1 µM	< 1 µM	Nc1nn2c(=O)c3c(c4cc(NC(=O)c5cc(F)cc(C(F)(F)F)c5)c(Oc5cc(F)ccc5Cl)c1c42)CCC3 [Example 74, N-(4-Amino-3-(2-chloro-5-fluorophenoxy)-7-oxo-7,8,9,10-tetrahydrocyclopenta[c]pyrazolo[4,5,1-ij]quinolin-2-yl)-3-fluoro-5-(trifluoromethyl)benzamide]
< 1 µM	5 to 10 µM	Cn1cnc(C#Cc2cc(NC(=O)c3cc(F)cc(C(F)(F)F)c3)c(Oc3cc(F)ccc3Cl)c3c(N)nn(C)c23)c1 [Example 50, N-(3-Amino-4-(2-chloro-5-fluorophenoxy)-1-methyl-7-((1-methyl-1H-imidazol-4-yl)ethynyl)-1H-indazol-5-yl)-3-fluoro-5-(trifluoromethyl)benzamide]
< 1 µM	1 to 5 µM	Cn1nc(N)c2c(Oc3cc(F)ccc3Cl)c(NC(=O)c3cc(F)cc(C(F)(F)F)c3)cc(C#CC3CCCCN3)c21 (stereo not drawn) [Example 78, N-(3-Amino-4-(2-chloro-5-fluorophenoxy)-1-methyl-7-(piperidin-2-ylethynyl)-1H-indazol-5-yl)-3-fluoro-5-(trifluoromethyl)benzamide]
< 1 µM	< 1 µM	CCNC(=O)c1cc(NC(=O)c2cc(F)cc(C(F)(F)F)c2)c(Oc2cc(F)ccc2Cl)c2c(N)nn(C)c12 [Example 65, 3-Amino-4-(2-chloro-5-fluorophenoxy)-N-ethyl-5-(3-fluoro-5-(trifluoromethyl)benzamido)-1-methyl-1H-indazole-7-carboxamide]
< 1 µM	1 to 5 µM	CNc1n[nH]c2ccc(NC(=O)c3cc(F)cc(C(F)(F)F)c3)c(Oc3cc(F)ccc3Cl)c12 [Example 2, N-(4-(2-Chloro-5-fluorophenoxy)-3-(methylamino)-1H-indazol-5-yl)-3-fluoro-5-(trifluoromethyl)benzamide]
< 1 µM	1 to 5 µM	Cn1nc(N)c2c(Oc3cc(F)ccc3Cl)c(NC(=O)c3cc(F)cc(C(F)(F)F)c3)cc(C#CC3CCOC3)c21 (stereo not drawn) [Example 41, N-(3-Amino-4-(2-chloro-5-fluorophenoxy)-1-methyl-7-((tetrahydrofuran-3-yl)ethynyl)-1H-indazol-5-yl)-3-fluoro-5-(trifluoromethyl)benzamide]
< 1 µM	1 to 5 µM	CNC(=O)Cn1nc(N)c2c(Oc3cc(F)ccc3Cl)c(NC(=O)c3cc(F)cc(C(F)(F)F)c3)ccc21 [Example 9, N-(3-Amino-4-(2-chloro-5-fluorophenoxy)-1-(2-(methylamino)-2-oxoethyl)-1H-indazol-5-yl)-3-fluoro-5-(trifluoromethyl)benzamide]
< 1 µM	1 to 5 µM	Cn1nc(N)c2c(Oc3cc(F)ccc3Cl)c(NC(=O)c3cc(F)cc(C(F)(F)F)c3)cc(C#CC3(C)COC3)c21 [Example 46, N-(3-Amino-4-(2-chloro-5-fluorophenoxy)-1-methyl-7-((3-methyloxetan-3-yl)ethynyl)-1H-indazol-5-yl)-3-fluoro-5-(trifluoromethyl)benzamide]
< 1 µM	< 1 µM	Cn1nc(N)c2c(Oc3cc(F)ccc3Cl)c(NC(=O)c3cc(F)cc(C(F)(F)F)c3)ccc21 [Example 7, N-(3-amino-4-(2-chloro-5-fluorophenoxy)-1-methyl-1H-indazol-5-yl)-3-fluoro-5-(trifluoromethyl)benzamide]
< 1 µM	< 1 µM	Nc1nn2c(=O)c3ccccc3c3cc(NC(=O)c4cc(F)cc(C(F)(F)F)c4)c(Oc4cc(F)ccc4Cl)c1c32 [Example 73, N-(4-Amino-3-(2-chloro-5-fluorophenoxy)-7-oxo-7H-pyrazolo[4,5,1-de]phenanthridin-2-yl)-3-fluoro-5-(trifluoromethyl)benzamide]
< 1 µM	< 1 µM	Nc1nn2c3c(cc(NC(=O)c4cc(F)cc(C(F)(F)F)c4)c(Oc4cc(F)ccc4Cl)c13)CN(C1CCC1)C2=O [Example 72, N-(2-Amino-3-(2-chloro-5-fluorophenoxy)-7-cyclobutyl-8-oxo-7,8-dihydro-6H-pyrazolo[4,5,1-ij]quinazolin-4-yl)-3-fluoro-5-(trifluoromethyl)benzamide]
< 1 µM	1 to 5 µM	Cn1nc(NC(=O)CN)c2c(Oc3cc(F)ccc3Cl)c(NC(=O)c3cc(F)cc(C(F)(F)F)c3)cc(Cl)c21 [Example 35, N-(3-(2-Aminoacetamido)-7-chloro-4-(2-chloro-5-fluorophenoxy)-1-methyl-1H-indazol-5-yl)-3-fluoro-5-(trifluoromethyl)benzamide]
< 1 µM	1 to 5 µM	Nc1nnc2ccc(NC(=O)c3cc(F)cc(C(F)(F)F)c3)c(Oc3cc(F)ccc3Cl)n12 [Example 20, N-(3-Amino-5-(2-chloro-5-fluorophenoxy)-[1,2,4]triazolo[4,3-a]pyridin-6-yl)-3-fluoro-5-(trifluoromethyl)benzamide]
< 1 µM	< 1 µM	Nc1n[nH]c2c(Cl)cc(NC(=O)c3cc(F)cc(C(F)(F)F)c3)c(Oc3cc(F)ccc3Cl)c12 [Example 12, N-(3-Amino-7-chloro-4-(2-chloro-5-fluorophenoxy)-1H-indazol-5-yl)-3-fluoro-5-(trifluoromethyl)benzamide]
< 1 µM	1 to 5 µM	Cn1cc(-c2cc(NC(=O)c3cc(F)cc(C(F)(F)F)c3)c(Oc3cc(F)ccc3Cl)c3c(N)n[nH]c23)cn1 [Example 14, N-(3-Amino-4-(2-chloro-5-fluorophenoxy)-7-(1-methyl-1H-pyrazol-4-yl)-1H-indazol-5-yl)-3-fluoro-5-(trifluoromethyl)benzamide]
